Test [1] deals with A549 cells and CAFs. Description: Mouse models having transplanted cancer cells and CAFs, administration started after tumor tissue was established (Example 6). It is filed as in vivo. The settings on record: hANP alone 0.5 μg/kg/min, started 2 weeks after transplantation, 4 weeks, FIG. 10. How it is done:
In this Example and Example 6, 5-week-old male immunodeficient mice (KSN mice, Japan SLC, Inc.) were used. The osmotic pumps used were MODEL2004 (for 28-day administration) made by ALZET (Cupertino, Calif.). A mixed suspension of the A549 cells and the CAFs was prepared using DMEM free from FBS so as to contain the A549 cells at 1×10^6 cells/100 μL and the CAFs at 0.5×10^6 cells/100 μL. The mixed suspension in an amount of 100 μL per mouse was subcutaneously injected in the back of the immunodeficient mice. […] After 2 weeks of observation from the injection of the cell suspension, the mice to which the mixed suspension had been injected were randomly divided into 4 groups (control group, ANP group, CNP group, and ANP+CNP group), and an osmotic pump appropriately adjusted for each group as shown below was subcutaneously implanted to start administration. • Control group and A549 group: physiological saline was administered • ANP group: hANP was administered at 0.5 μg/kg/min • CNP group: hCNP-22 was administered at 2.5 μg/kg/min • ANP+CNP group: hANP was administered at 0.5 μg/kg/min and hCNP-22 was administered at 2.5 μg/kg/min Observation was further continued for 4 weeks after the start of administration, the tumor size at the cell injection site was measured weekly, and tumor volume was calculated in the same way as in Example 5 (FIG. 10).

The test system of test [2] is A549 cells co-cultured with CAFs. Kind of test: Co-culture system of cancer cells and CAFs (mRNA of the A549 cells). Format: cell-based, human. The settings on record: each test substance 1 μM. How it is done: In a 6-well dish, the A549 cells were cultured at 1×10^5 cells/well. The culture medium was replaced with DMEM culture medium free from FBS the next day, and the cells were further cultured for 24 hours. In a 6-well dish having a cell culture insert (1.0 μm pore size, made by BD), the CAFs were cultured at 5×10^4 cells/well. The culture medium was replaced with DMEM culture medium containing 1% FBS the next day, and the cells were further cultured for 24 hours. To each culture medium of the two kinds of cells, test substances were separately added to prepare test substance addition groups. Control groups with no test substance were also prepared. After two hours of culture, these were subjected to co-culture. The test substance addition groups were ANP groups containing hANP at a final concentration of 1 μM, CNP groups containing hCNP-22 at a final concentration of 1 μM, and ANP+CNP groups containing both hANP and hCNP-22 each at a final concentration of 1 μM. Each of the groups were prepared by adding the test substance to each culture medium of the two kinds of cells.
On the 6-well dish of A549 cells treated as above, the above cell culture insert with the CAFs was placed to prepare a co-culture experimental model where only the culture media could pass through the cell culture insert. After 24, 48, and 72 hours of culture, total RNA of the A549 cells only was recovered, cDNA was synthesized, and the mRNA levels of E-cadherin, N-cadherin, VEGF-A, PDGF-B, and IL-6 were measured by quantitative RT-PCR (FIGS. 6 to 8). The experiment using ANP alone (ANP groups: FIG. 6), the experiment using CNP alone (CNP groups: FIG. 7), and the experiment using ANP and CNP in combination (ANP+CNP group: FIG. 8) were independently conducted, where control groups were separately set for each experiment.

Test [3] relates to A549 cells. Description: EMT induced by TGF-β1 in A549 cells (morphology, quantitative RT-PCR). It is filed as cell-based, human. How it is done: Using a 6-well dish, the A549 cells were cultured at 1×10^5 cells/well, and the culture medium was replaced with DMEM culture medium free from FBS the next day. After 24 hours of culture, the cells were used in the following experiment.
An ANP group (a hANP solution was added (final concentration: 1 μM)) and a control group (the same amount of physiological saline was added) were prepared, and after 2 hours from the addition (of the hANP solution or the physiological saline) to the A549 cells, TGF-β1 was added so that the final concentration would be 0.125, 0.25, 0.5, 1.0, and 2.0 ng/mL. After 24 hours had passed, the morphological change in the cells was observed under a microscope and photographed (FIG. 2).
Then, total RNA was recovered from the above prepared ANP group and control group using TRIZOL total RNA isolation reagent (made by Invitrogen), cDNA was synthesized using reverse transcriptase, and the mRNA levels of E-cadherin, N-cadherin, VEGF-A, PDGF-B, TNF-α, and IL-6 were measured by quantitative RT-PCR. The mRNA level of each intended gene was calculated as the relative ratio of the mRNA amount of the gene to that of the housekeeping gene 36B4 measured at the same time. In the Examples below, unless otherwise stated, the mRNA levels were obtained through the same calculation.
It is known that in EMT, the expression of E-cadherin decreases while the expression of N-cadherin increases. The expression ratio of the two kinds of cadherin (N-cad/E-cad) is considered to be useful as an indicator of the degree of EMT.

The test system of test [4] is A549 cells. Kind of test: Changes in the intracellular cGMP level in response to natriuretic peptide stimulus, A549 cells. Format: cell-based, human. The settings on record: 1×10^−11 M to 1×10^−6 M, 10 minutes, FIG. 1A. How it is done: Lung adenocarcinoma cell line, A549 cells, was obtained from ATCC (Manassas, Va.). The cells were cultured in DMEM culture medium (Invitrogen, Carlsbad, Va.) containing 10% FCS under 5% CO2 at 37° C. The amounts of the culture medium were 1.5 mL for each well of a 6-well dish, 400 μL for each well of a 24-well dish, and 150 μL for each well of a 96-well dish. In the Examples below, unless otherwise stated, the same culture medium and culture conditions were adopted.
The A549 cells were cultured in a 24-well dish at 4×10^4 cells/well, and the culture medium was replaced with DMEM culture medium free from FCS the next day. The CAFs were cultured in a 24-well dish at 1×10^4 cells/well, and the culture medium was replaced with DMEM culture medium containing 1% FCS the next day.
To these culture media, solutions of hANP, hBNP, and hCNP-22 (final concentration: ten-fold serial dilution from 1×10^−11 M to 1×10^−6 M, the same amount of physiological saline was used as a control) were separately added. After 10 minutes had passed, 400 μL of cooled 70% ethanol (containing 0.1 N hydrochloric acid) was added, and ultrasonication was performed for a short time. The treated solution was lyophilized, and the cGMP level was measured using Cyclic GMP Assay kit (made by Yamasa Corp.).

In test [5] the test system is tumor cells. Conditions: reports by Vesely et al.; cited from earlier work.
[6] abbreviates: A549 cells, test substance 1 μM, mRNA level, FIG. 3.

Here are results for one compound from patent US9233143B2, “Medicinal agent for preventing exacerbation of malignant tumor, comprising combination of natriuretic peptide receptor GC-A and GC-B agonists” (National Cerebral and Cardiovascular Center, priority 2011, dated 2016).

Each structure is given as a SMILES string.

For the compound `CC[C@H](C)[C@@H]1NC(=O)[C@H](CCCNC(=N)N)NC(=O)[C@H](CC(=O)O)NC(=O)[C@H](CCSC)NC(=O)[C@H](CCCNC(=N)N)NC(=O)CNC(=O)CNC(=O)[C@H](Cc2ccccc2)NC(=O)[C@@H](NC(=O)[C@H](CO)NC(=O)[C@H](CO)NC(=O)[C@H](CCCNC(=N)N)NC(=O)[C@H](CCCNC(=N)N)NC(=O)[C@H](CC(C)C)NC(=O)[C@@H](N)CO)CSSC[C@@H](C(=O)N[C@@H](CC(N)=O)C(=O)N[C@@H](CO)C(=O)N[C@@H](Cc2ccccc2)C(=O)N[C@@H](CCCNC(=N)N)C(=O)N[C@@H](Cc2ccc(O)cc2)C(=O)O)NC(=O)CNC(=O)[C@H](CC(C)C)NC(=O)CNC(=O)[C@H](CO)NC(=O)[C@H](CCC(N)=O)NC(=O)[C@H](C)NC(=O)CNC1=O` [hANP], in test [1], the “tumor growth as compared with the control group” value was “showed an effect of tumor growth suppression”. In addition, the “gene expression of the growth factors (VEGF-A, PDGF-B) and inflammatory cytokine (IL-6) increased in the co-culture” value in test [2] (A549 cells co-cultured with CAFs 24, 48, 72 hours, FIGS. 6 to 8) is reported as “could not suppress”. In test [2] (A549 cells co-cultured with CAFs, FIGS. 6D, 7D, 8D), the “expression ratio of N-cadherin/E-cadherin (N-cad/E-cad), indicator of EMT, in the co-culture” value is “did not show any effect”. The “expression ratio of N-cad/E-cad (indicator of EMT)” value in test [3] (A549 cells, 1 μM hANP, TGF-β1 stimulus, FIG. 4) is reported as “significantly decreased”. For the same compound, in test [3] (A549 cells, test substance 1 μM, 24 hours after TGF-β1, FIG. 2), the “morphological change in the cells associated with EMT induced by the TGF-β1 stimulus” value is given as “significantly suppressed”. The “gene expression of the growth factors (VEGF-A, PDGF-B) and the inflammatory cytokines (TNF-α, IL-6) increased by EMT induced by the TGF-β1 stimulus” value in test [3] (A549 cells, test substance 1 μM, TGF-β1 0.125-2.0 ng/mL, 24 hours, mRNA level, FIG. 3) is recorded as “significantly suppressed”. Also, in test [3] (setting [6]), the “decrease in the expression of E-cadherin induced by the TGF-β1 stimulus” value is “inhibited decrease” and the “increase in the expression of N-cadherin induced by the TGF-β1 stimulus” value is recorded as “significantly suppressed increase”. Besides, the “effect of suppressing EMT” value in test [3] (concentration of 1 μM, summary of Example 2) is listed as “significantly suppressing EMT”. In addition, the “intracellular cGMP level of the A549 cells” value in test [4] is listed as “increased the intracellular cGMP level of the A549 cells in a concentration-dependent manner”. In addition, the “growth-suppressing activity on tumor (cancer) cells” value in test [5] is listed as “growth-suppressing effect”.
